Each structure is given as a SMILES string.

We go through 1 compound from patent US12631620B2, “Methods of generating organoids for high throughput screening of drugs” (Yissum Research Development Company of the Hebrew …, priority 2019, dated 2026).

Data set [1] concerns E6/E7^LOW human hepatocytes. As to the kind of experiment: Bile secretion, CDFDA staining. The format is cell-based. The settings on record: p<0.05, n=4. As for the experimental part:
Quantification of Apoptotic index was performed using DeadEnd™ fluorometric TUNEL System (Promega) according to manufacturer directions. Briefly, cells were treated with TC20 concentrations of compounds dissolved in culture medium for 24 hours, and subsequently fixed in 4% Paraformaldehyde (PFA). Cells were then permeabilized and exposed to fluorescein-12-dUTP and terminal deoxynucleotidyl transferase (TdT). The reaction was subsequently stopped and the cells counterstained with 1 μg/mL Hoechst 33258. Apoptotic cells were positive for green fluorescence in the nucleus. Percentage apoptosis was defined as the number of TUNEL positive nuclei normalized to Hoechst 33258 positive nuclei. Quantification of Steatosis was performed using HCS LipidTOX™ Phospholipidosis and Steatosis Detection Kit (ThermoFisher). […] Quantification of Bile Secretion was performed using 5(6)-carboxy-2′,7′-dichlorofluorescein diacetate (CDFDA) staining. […] All quantifications were made in comparison to cells treated with melatonin as negative control.
Quantification of Apoptotic index was performed using DeadEnd™ fluorometric TUNEL System (Promega) according to manufacturer directions. […] Apoptotic cells were positive for green fluorescence in the nucleus. […] Quantification of Steatosis was performed using HCS LipidTOX™ Phospholipidosis and Steatosis Detection Kit (ThermoFisher). […]

For data set [2], the system named is E6/E7^LOW human hepatocytes. As to the kind of experiment: Apoptotic index, DeadEnd fluorometric TUNEL System. It counts as cell-based. The following applies: 24 hours exposure.
The subject of the next data set is HepG2/C3A organoids. Description: Neutral lipid and phospholipid staining of HepG2/C3A organoids on chip. The format is cell-based, human. The settings on record: p<0.001, n=9.
For data set [3] the following is noted: patients on therapy; cited from earlier work.

`Cc1cn([C@H]2C=C[C@@H](CO)O2)c(=O)[nH]c1=O` [Stavudine]: in data set [1], the bile secretion entry is reported as “mild inhibition”. In addition, the apoptosis entry in data set [2] is on record as “no evidence of apoptosis”. Further, the “increase in the amount of intracellular lipids” value in the data set on HepG2/C3A organoids is reported as 3 fold. The “patients with elevated liver enzymes” value in data set [3] is 30%.
